Here are results for one compound from BindingDB's records for doi:10.1016/s0960-894x(99)00670-8 (Institute, 2000).

What is called Ki is the dissociation constant of the complex between target and ligand, obtained from inhibition or displacement. A higher Ki goes with lower affinity.

The nature of the test: Binding affinity was determined against Opioid receptor delta 1 obtained from guinea pig brain membranes using [3H]naltrindole as radioligand.

Consider `C[C@H]1C2Cc3ccc(N)cc3[C@@]1(C)CCN2CC1CC1` [3-Cyclopropylmethyl-6,11-dimethyl-1,2,3,4,5,6-hexahydro-2,6-methano-benzo[d]azocin-8-ylamine], for which the Ki was found to be 12 nM.
